Data on 13 compounds can be found in ChEMBL document CHEMBL1201862, “PubChem BioAssay data set” (2004).

Among the test systems are HCT-15; HOP-92; HT-29; LOX IMVI; M14; Malme-3M; OVCAR-3; OVCAR-8; SF-268; SF-295; SN12C; SNB-75; U-251; UACC-62; UO-31; EKVX; SNB-19.
Holding throughout (experiment): NCI tumour cell line growth inhibition, 48 h

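A five-concentration, 48-hour dose response in 96-well plates underlies each endpoint, interpolated linearly between surrounding concentrations. The concentration for 50% growth inhibition is given as GI50.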 Activity calls are given as the source filed them. Rule as the data show it: active = GI50 up to about 1.1 µM and inactive = higher.

`Clc1ccc(CCn2cncn2)cc1`: the GI50 was more than 100 µM in the experiment with HCT-15; > 100 µM (inactive) with HOP-92; > 100 µM (inactive) in the experiment on HT-29; > 100 µM (inactive) in the experiment on LOX IMVI; > 100 µM (inactive) in the experiment on M14; > 100 µM (inactive) in the experiment with Malme-3M. Besides, the GI50 with OVCAR-3 is > 100 µM (inactive); with OVCAR-8, > 100 µM (inactive); in the experiment on SF-268, > 100 µM (inactive); in the experiment with SF-295, > 100 µM (inactive); with SN12C it was > 100 µM (inactive); in the experiment with SNB-75, 86.3 µM (inactive). Moreover, the GI50 with U-251, in the experiment on UACC-62 and in the experiment on UO-31 was > 100 µM (inactive) throughout.
For `NCc1ccccc1C1CSCSC1`, the GI50 with HCT-15 was more than 100 µM; with HT-29 it was > 100 µM (inactive); with LOX IMVI, > 100 µM (inactive); in the experiment on Malme-3M, > 100 µM (inactive); with OVCAR-3 it was > 100 µM (inactive); in the experiment on OVCAR-8, > 100 µM (inactive). Also, the GI50 in the experiment on SF-268, in the experiment on SF-295, with SN12C, in the experiment on SNB-75, with U-251 and in the experiment with UACC-62 was > 100 µM (inactive) throughout. Also, in the experiment with UO-31, the GI50 is > 100 µM (inactive).
In the case of `Cc1ccc(NC(=O)C2C(=O)N(c3ccc(C)c(C)c3)C(=O)/C2=N\NC(N)=O)cc1C` (stereo unspecified), the GI50 in the experiment with EKVX was 55.8 µM (inactive); in the experiment with HCT-15, 79.4 µM; with HOP-92, 63.5 µM (inactive); in the experiment with HT-29, > 100 µM (inactive); in the experiment on LOX IMVI, > 100 µM (inactive); in the experiment with M14 it was > 100 µM (inactive). In addition, the GI50 was > 100 µM (inactive) in the experiment on Malme-3M; 38.4 µM (inactive) in the experiment on OVCAR-3; 62.2 µM (inactive) with OVCAR-8; 74 µM (inactive) with SF-268; 86.9 µM (inactive) with SF-295; 77.3 µM (inactive) in the experiment on SN12C. Further, the GI50 is > 100 µM (inactive) with SNB-19; > 100 µM (inactive) with SNB-75; 57.3 µM (inactive) in the experiment with U-251; 94.6 µM (inactive) in the experiment on UACC-62; 57.4 µM (inactive) in the experiment with UO-31.
Take `O=C(CC1(O)C(=O)Nc2ccccc21)c1ccc2ccccc2c1` (stereo unspecified): the GI50 was > 100 µM (inactive) in the experiment with EKVX; more than 100 µM with HCT-15; > 100 µM (inactive) in the experiment on HOP-92; > 100 µM (inactive) with HT-29; > 100 µM (inactive) in the experiment on LOX IMVI; > 100 µM (inactive) in the experiment with M14. Moreover, the GI50 in the experiment with Malme-3M, in the experiment on OVCAR-3, with OVCAR-8, in the experiment with SF-268, with SF-295 and with SN12C was > 100 µM (inactive) throughout. Also, the GI50 in the experiment on SNB-19 is > 100 µM (inactive); in the experiment on SNB-75 it was 78 µM (inactive); with UACC-62, > 100 µM (inactive); in the experiment on UO-31, 44.7 µM (inactive).
In the case of `Cc1cc(O)c(C(=O)CC2(O)C(=O)Nc3c(Cl)cc(Cl)cc32)c(=O)o1` (stereo unspecified), the GI50 is > 100 µM (inactive) with EKVX; more than 100 µM in the experiment on HCT-15; > 100 µM (inactive) with HOP-92; > 100 µM (inactive) in the experiment with HT-29; > 100 µM (inactive) in the experiment on M14; > 100 µM (inactive) in the experiment with Malme-3M. Further, the GI50 in the experiment with OVCAR-3, in the experiment with OVCAR-8, with SF-268, with SF-295, in the experiment with SN12C and in the experiment on SNB-19 was > 100 µM (inactive) in each case. Also, the GI50 is 26.6 µM (inactive) in the experiment with SNB-75, > 100 µM (inactive) with U-251, > 100 µM (inactive) in the experiment with UACC-62 and > 100 µM (inactive) in the experiment on UO-31.
Turning to `NS(=O)(=O)c1ccc(NC(=O)C2C(=O)C(=O)N(c3ccc(S(N)(=O)=O)cc3)C2=O)cc1` (stereo unspecified), the GI50 in the experiment on EKVX is > 100 µM (inactive); in the experiment on HCT-15, more than 100 µM; in the experiment on HOP-92, > 100 µM (inactive); with HT-29 it was > 100 µM (inactive); in the experiment on LOX IMVI, > 100 µM (inactive); with M14, > 100 µM (inactive). Also, the GI50 in the experiment on Malme-3M, in the experiment with OVCAR-3, in the experiment with OVCAR-8, with SF-268, in the experiment on SF-295 and in the experiment with SN12C was > 100 µM (inactive) each time. In addition, the GI50 in the experiment on SNB-19, with SNB-75, with U-251, with UACC-62 and in the experiment with UO-31 was > 100 µM (inactive) each time.
In the case of `COc1cc(C2C(Cl)C(=O)N2NC(=O)c2ccc(NC(C)=O)cc2)cc(Br)c1O` (stereo unspecified), the GI50 with HOP-92, in the experiment with HT-29, with Malme-3M, in the experiment on OVCAR-3, with OVCAR-8 and with SF-268 was > 100 µM (inactive) each time. The GI50 with SF-295, in the experiment with SNB-19, in the experiment on SNB-75, with U-251, with UACC-62 and in the experiment with UO-31 was > 100 µM (inactive) in each case.
For the compound `Cc1cccc(C)c1NC(=O)CCc1nnc(S)[nH]1`, the GI50 is > 100 µM (inactive) in the experiment on EKVX; more than 100 µM in the experiment with HCT-15; > 100 µM (inactive) with HOP-92; > 100 µM (inactive) in the experiment with LOX IMVI; > 100 µM (inactive) in the experiment on M14; > 100 µM (inactive) with Malme-3M. Moreover, the GI50 in the experiment with OVCAR-8, in the experiment with SF-268, with SN12C, with SNB-19, with SNB-75 and with U-251 was > 100 µM (inactive) in each case. Also, the GI50 in the experiment on UACC-62 and in the experiment on UO-31 was > 100 µM (inactive) in each case.
With `CC(=O)Nc1ccc(/C=C(\NC(=O)c2ccccc2)C(=O)NNS(=O)(=O)c2ccc(C)cc2)cc1`, the GI50 is > 100 µM (inactive) with EKVX; 18.4 µM in the experiment on HCT-15; > 100 µM (inactive) in the experiment with HOP-92; > 100 µM (inactive) in the experiment with HT-29; 16.4 µM (inactive) with LOX IMVI; > 100 µM (inactive) in the experiment with M14. In addition, the GI50 was > 100 µM (inactive) in the experiment with Malme-3M; > 100 µM (inactive) in the experiment with OVCAR-3; > 100 µM (inactive) in the experiment with OVCAR-8; 78.9 µM (inactive) in the experiment on SF-268; > 100 µM (inactive) with SF-295; > 100 µM (inactive) in the experiment on SN12C. The GI50 with SNB-19, with SNB-75, with U-251, in the experiment on UACC-62 and in the experiment with UO-31 was > 100 µM (inactive) each time.
For `CCOC(=O)/C(=C/c1ccco1)P(=O)(OCC)OCC`, the GI50 is > 100 µM (inactive) in the experiment with EKVX; more than 100 µM in the experiment with HCT-15; > 100 µM (inactive) in the experiment on HOP-92; > 100 µM (inactive) with HT-29; > 100 µM (inactive) with LOX IMVI; > 100 µM (inactive) in the experiment on M14. Also, the GI50 in the experiment with Malme-3M, in the experiment on OVCAR-8, in the experiment with SF-268, in the experiment on SF-295, with SN12C and in the experiment on SNB-75 was > 100 µM (inactive) each time. In addition, the GI50 in the experiment on U-251, with UACC-62 and with UO-31 was > 100 µM (inactive) in each case.
`O=C(c1ccco1)c1ccccc1C(=O)c1ccco1`: the GI50 in the experiment on EKVX was > 100 µM (inactive); in the experiment on HCT-15, more than 100 µM; with HOP-92, > 100 µM (inactive); in the experiment with HT-29 it was > 100 µM (inactive); with LOX IMVI it was > 100 µM (inactive); in the experiment with M14, > 100 µM (inactive). Further, the GI50 in the experiment on Malme-3M, in the experiment on OVCAR-3, with OVCAR-8, in the experiment on SF-268, in the experiment with SF-295 and with SN12C was > 100 µM (inactive) each time. For the same compound, the GI50 with SNB-19, in the experiment on SNB-75, with U-251, in the experiment with UACC-62 and in the experiment on UO-31 was > 100 µM (inactive) each time.
On to `O=C1c2ccccc2C2(O)NC(=S)N(c3ccccc3)C12O` (stereo unspecified), for which the GI50 is > 100 µM (inactive) with EKVX; more than 100 µM in the experiment with HCT-15; > 100 µM (inactive) in the experiment on HOP-92; > 100 µM (inactive) in the experiment with HT-29; > 100 µM (inactive) in the experiment with LOX IMVI; > 100 µM (inactive) in the experiment on M14. Moreover, the GI50 in the experiment on Malme-3M, in the experiment on OVCAR-3, in the experiment on OVCAR-8, in the experiment on SF-268, with SF-295 and in the experiment on SNB-19 was > 100 µM (inactive) each time. Further, the GI50 in the experiment with SNB-75, in the experiment on U-251, in the experiment with UACC-62 and in the experiment on UO-31 was > 100 µM (inactive) throughout.
As to `Cc1nc(O)nc2c1C(NCCCN(C)C)c1cc(Cl)ccc1N2` (stereo unspecified), the GI50 in the experiment on EKVX was 16.3 µM (inactive); in the experiment with HOP-92, 10.9 µM (inactive); in the experiment with HT-29, 10.4 µM (inactive); with LOX IMVI it was 11.9 µM (inactive); with M14, 9.59 µM (inactive); in the experiment with Malme-3M it was 16.7 µM (inactive). Further, the GI50 is 17.4 µM (inactive) in the experiment on OVCAR-3; 15.3 µM (inactive) in the experiment on OVCAR-8; 16.2 µM (inactive) in the experiment with SF-268; 16.6 µM (inactive) in the experiment on SF-295; 14.8 µM (inactive) in the experiment with SN12C; 16.4 µM (inactive) in the experiment on SNB-19. For the same compound, the GI50 is 12.8 µM (inactive) in the experiment on SNB-75, 15.9 µM (inactive) in the experiment on U-251, 13.4 µM (inactive) in the experiment on UACC-62 and 13.6 µM (inactive) with UO-31.
